Assays:
Assay in all cases: relative viability (nuclei count vs DMSO), 5 days (fraction); higher = more cells survive
OSI-027 + Crizotinib = compound: COc1cccc2cc(-c3nc([C@H]4CC[C@H](C(=O)O)CC4)n4ncnc(N)c34)[nH]c12 [OSI-027] + C[C@@H](Oc1cc(-c2cnn(C3CCNCC3)c2)cnc1N)c1c(Cl)ccc(F)c1Cl [Crizotinib] (partner 1 µM)
In short: (§1)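 Relative viability is defined as nuclei in treated wells over nuclei in vehicle wells. Duplicate plates were run and medians reported. Lung cancer cell lines in 1536-well plates were dosed by pin tool one day after seeding, with one drug or with a fixed anchor-drug dose plus five library-drug doses (not always all listed) in √10 steps, and nuclei were counted after 5 days.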

Alpelisib + Bortezomib = compound: Cc1nc(NC(=O)N2CCC[C@H]2C(N)=O)sc1-c1ccnc(C(C)(C)C(F)(F)F)c1 [Alpelisib] + CC(C)C[C@H](NC(=O)[C@H](Cc1ccccc1)NC(=O)c1cnccn1)B(O)O [Bortezomib] (partner 0.002 µM)
In short: as §1

Vemurafenib + Crizotinib = compound: CCCS(=O)(=O)Nc1ccc(F)c(C(=O)c2c[nH]c3ncc(-c4ccc(Cl)cc4)cc23)c1F [Vemurafenib] + C[C@@H](Oc1cc(-c2cnn(C3CCNCC3)c2)cnc1N)c1c(Cl)ccc(F)c1Cl [Crizotinib] (partner 1 µM)
In short: as §1

Alpelisib + Tozasertib = compound: Cc1nc(NC(=O)N2CCC[C@H]2C(N)=O)sc1-c1ccnc(C(C)(C)C(F)(F)F)c1 [Alpelisib] + Cc1cc(Nc2cc(N3CCN(C)CC3)nc(Sc3ccc(NC(=O)C4CC4)cc3)n2)n[nH]1 [Tozasertib] (partner 0.1 µM)
In short: as §1

| Cell Line | relative viability (OSI-027 + Crizotinib; first compound 0.01 µM) | relative viability (OSI-027 + Crizotinib; first compound 0.03162 µM) | relative viability (OSI-027 + Crizotinib; first compound 0.1 µM) | relative viability (OSI-027 + Crizotinib; first compound 0.3162 µM) | relative viability (OSI-027 + Crizotinib; first compound 1 µM) | relative viability (Alpelisib + Bortezomib; first compound 0.04 µM) | relative viability (Alpelisib + Bortezomib; first compound 0.4 µM) | relative viability (Alpelisib + Bortezomib; first compound 1.265 µM) | relative viability (Alpelisib + Bortezomib; first compound 4 µM) | relative viability (Vemurafenib + Crizotinib; first compound 0.03162 µM) | relative viability (Vemurafenib + Crizotinib; first compound 0.1 µM) | relative viability (Vemurafenib + Crizotinib; first compound 0.3162 µM) | relative viability (Vemurafenib + Crizotinib; first compound 1 µM) | relative viability (Alpelisib + Tozasertib; first compound 0.04 µM) | relative viability (Alpelisib + Tozasertib; first compound 0.1265 µM) | relative viability (Alpelisib + Tozasertib; first compound 0.4 µM) | relative viability (Alpelisib + Tozasertib; first compound 1.265 µM) | relative viability (Alpelisib + Tozasertib; first compound 4 µM) | relative viability (Alpelisib + Bortezomib; first compound 0.1265 µM) |
| --- | --- | --- | --- | --- | --- | --- | --- | --- | --- | --- | --- | --- | --- | --- | --- | --- | --- | --- | --- |
| LCLC-97TM1 | 0.246 | 0.407 | 0.322 | 0.267 | 0.105 | 0.682 | 0.86 | 0.384 | 0.237 | 0.287 | 0.246 | 0.301 | 0.278 | 0.206 | 0.176 | 0.178 | 0.146 | 0.117 |  |
| NCI-H2405 | 0.856 | 0.729 | 0.814 | 0.631 | 0.338 | 0.997 | 0.927 | 0.83 | 0.696 | 0.865 | 0.827 |  | 0.766 | 0.725 | 0.68 | 0.825 | 0.682 | 0.625 | 0.835 |
| COR-L 105 | 0.754 | 0.741 | 0.766 | 0.894 | 0.415 | 0.92 | 1.33 | 0.735 | 0.782 | 0.623 |  | 0.661 | 1.13 | 0.372 | 0.343 | 0.591 | 0.306 | 0.334 | 0.86 |
| BEN | 0.921 | 0.545 | 0.612 | 0.34 | 0.393 | 0.793 | 0.807 | 0.761 | 0.697 | 0.812 | 0.9 | 0.603 | 0.817 | 0.552 | 0.443 | 0.571 | 0.521 | 0.484 | 0.733 |
| HCC-827 | 0.924 | 0.969 | 0.915 | 1.01 | 0.649 | 1.1 | 1.28 | 1.02 | 0.942 | 0.825 |  | 0.924 | 0.863 | 0.462 | 0.409 | 0.508 | 0.398 | 0.366 | 0.904 |
| NCI-H3122 | 0.261 | 0.26 | 0.266 | 0.215 | 0.163 | 0.992 | 0.984 | 1.12 | 0.999 | 0.266 | 0.263 | 0.383 | 0.211 | 0.334 | 0.387 | 0.35 | 0.255 | 0.263 | 1.08 |
| HCC-15 | 0.933 | 0.712 | 0.789 | 0.732 | 0.482 | 1.03 | 1.04 | 0.898 | 0.858 | 0.75 | 0.803 | 0.699 | 0.81 | 0.352 | 0.373 | 0.487 | 0.336 | 0.263 | 0.948 |
| NCI-H1755 | 0.915 | 0.771 | 0.872 | 0.748 | 0.421 | 0.911 | 1.06 | 0.886 | 0.838 | 0.798 | 0.842 | 0.844 | 0.79 | 0.615 | 0.508 | 0.629 | 0.438 | 0.434 | 0.972 |
| EMC-BAC-2 | 0.752 | 0.786 | 0.737 | 0.683 | 0.416 | 1.02 | 1.22 | 0.929 | 0.741 | 0.703 | 0.729 | 0.678 | 0.681 | 0.294 | 0.255 | 0.307 | 0.242 | 0.242 | 1.01 |
